Where two headings read alike, the source gives them in different places.
Legend:
EphB4(h) = target: T1, EphB4(h) (Homo sapiens, UniProt P54760); assay: Kinase panel; assay type: biochemical
T1 construct: purchased Millipore KinaseProfiler
T1 sequence (P54760 16-987): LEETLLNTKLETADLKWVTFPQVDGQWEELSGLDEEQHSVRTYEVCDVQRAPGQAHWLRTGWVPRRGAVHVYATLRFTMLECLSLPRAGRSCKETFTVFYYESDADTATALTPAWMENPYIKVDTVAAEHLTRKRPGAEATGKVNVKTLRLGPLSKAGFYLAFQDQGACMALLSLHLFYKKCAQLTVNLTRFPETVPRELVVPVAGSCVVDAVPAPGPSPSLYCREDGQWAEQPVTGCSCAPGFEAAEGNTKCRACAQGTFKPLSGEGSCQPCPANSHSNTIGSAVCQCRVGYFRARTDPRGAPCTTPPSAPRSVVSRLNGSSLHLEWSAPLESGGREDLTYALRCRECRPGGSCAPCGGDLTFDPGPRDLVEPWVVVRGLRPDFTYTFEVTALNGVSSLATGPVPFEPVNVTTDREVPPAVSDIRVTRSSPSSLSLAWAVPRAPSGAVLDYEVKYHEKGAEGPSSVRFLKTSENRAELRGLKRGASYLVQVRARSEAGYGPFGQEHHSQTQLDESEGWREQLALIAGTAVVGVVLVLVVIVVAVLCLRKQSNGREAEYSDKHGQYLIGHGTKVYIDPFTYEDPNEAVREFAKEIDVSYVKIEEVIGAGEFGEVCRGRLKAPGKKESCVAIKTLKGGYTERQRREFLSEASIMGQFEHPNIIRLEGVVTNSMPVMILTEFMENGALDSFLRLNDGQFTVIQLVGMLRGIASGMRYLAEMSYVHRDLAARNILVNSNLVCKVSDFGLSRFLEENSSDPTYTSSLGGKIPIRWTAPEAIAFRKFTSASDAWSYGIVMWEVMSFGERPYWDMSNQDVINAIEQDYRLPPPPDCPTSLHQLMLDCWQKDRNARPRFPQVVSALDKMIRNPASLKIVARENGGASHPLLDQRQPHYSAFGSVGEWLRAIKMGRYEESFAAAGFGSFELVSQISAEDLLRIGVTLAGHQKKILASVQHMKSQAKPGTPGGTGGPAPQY

[1] = tested on: AKT substrate phosphorylation in LNCaP; assay: Western analysis of AKT signaling; assay type: cell-based, human; conditions: 1 h
Method: (§1) Cells treated with DMSO or compounds for different duration were lysed using RIPA buffer (Teknova) containing protease and phosphatase inhibitors (Sigma Aldrich). Equal amounts of protein were resolved in 4–12% SDS-PAGE gels (Invitrogen), transferred onto 0.45 µm PVDF membrane (Invitrogen), and incubated with primary antibodies (1∶1000 dilution) overnight. Antibodies for AKT, phospho-AKT (Ser473 and Thr308), phospho-FOXO (Thr24/32), phospho-MEK1/2 (Ser217/221) were purchased from Cell Signaling Technologies. Phospho-GSK3β (Ser9) antibody was from R&D Systems. PRAS40 and phospho-PRAS40 (Thr246) antibodies were obtained from Millipore. Phospho-ERK1/2 (Tyr204), ERK1/2, and phospho-Caspase 9 (Ser196) antibodies were purchased from Santa Cruz Biotechnologies. Tubulin antibodies were purchased from Sigma Aldrich. Following incubation with primary antibody, blots were washed and incubated with IRDye-680 goat-anti-mouse or IRDye-800CW goat-anti-rabbit antibodies (1; 10,000 dilution; LI-COR) for 1 h. Following thorough washing, blots were analyzed using an infrared imaging system (LI-COR).

[2] = tested on: AKT substrate phosphorylation in BT474; assay: Western analysis of AKT signaling; assay type: cell-based, human; conditions: BT474, 1 h
Method: as §1

WNK3(h) = target: T2, WNK3(h) (Homo sapiens, UniProt Q9BYP7); assay: Kinase panel; assay type: biochemical
T2 construct: purchased Millipore KinaseProfiler

PKG1α(h) = target: T3, PKG1α(h) (Homo sapiens, UniProt Q13976); assay: Kinase panel; assay type: biochemical
T3 construct: purchased Millipore KinaseProfiler
T3 sequence (Q13976 1-671): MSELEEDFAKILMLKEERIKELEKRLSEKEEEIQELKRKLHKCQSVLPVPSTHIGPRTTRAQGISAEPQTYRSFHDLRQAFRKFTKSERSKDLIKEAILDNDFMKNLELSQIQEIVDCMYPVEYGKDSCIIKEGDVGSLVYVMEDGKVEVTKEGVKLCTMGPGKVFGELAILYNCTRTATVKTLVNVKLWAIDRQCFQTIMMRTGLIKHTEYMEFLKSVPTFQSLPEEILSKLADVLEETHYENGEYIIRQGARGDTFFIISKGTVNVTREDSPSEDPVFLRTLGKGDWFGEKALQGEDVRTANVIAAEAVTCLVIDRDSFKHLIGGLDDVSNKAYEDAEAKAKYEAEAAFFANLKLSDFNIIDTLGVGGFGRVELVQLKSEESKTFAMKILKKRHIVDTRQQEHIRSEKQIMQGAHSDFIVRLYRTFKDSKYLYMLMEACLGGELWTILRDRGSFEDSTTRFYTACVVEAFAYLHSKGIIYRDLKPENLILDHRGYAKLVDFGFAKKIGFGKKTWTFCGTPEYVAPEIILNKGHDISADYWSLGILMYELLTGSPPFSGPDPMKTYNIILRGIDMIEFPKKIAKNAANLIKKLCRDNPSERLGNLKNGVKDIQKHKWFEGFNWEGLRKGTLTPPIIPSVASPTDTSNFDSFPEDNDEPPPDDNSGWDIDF

ALK4(h) = target: T4, ALK4(h) (Homo sapiens, UniProt P36896); assay: Kinase panel; assay type: biochemical
T4 construct: purchased Millipore KinaseProfiler
T4 sequence (P36896 24-505): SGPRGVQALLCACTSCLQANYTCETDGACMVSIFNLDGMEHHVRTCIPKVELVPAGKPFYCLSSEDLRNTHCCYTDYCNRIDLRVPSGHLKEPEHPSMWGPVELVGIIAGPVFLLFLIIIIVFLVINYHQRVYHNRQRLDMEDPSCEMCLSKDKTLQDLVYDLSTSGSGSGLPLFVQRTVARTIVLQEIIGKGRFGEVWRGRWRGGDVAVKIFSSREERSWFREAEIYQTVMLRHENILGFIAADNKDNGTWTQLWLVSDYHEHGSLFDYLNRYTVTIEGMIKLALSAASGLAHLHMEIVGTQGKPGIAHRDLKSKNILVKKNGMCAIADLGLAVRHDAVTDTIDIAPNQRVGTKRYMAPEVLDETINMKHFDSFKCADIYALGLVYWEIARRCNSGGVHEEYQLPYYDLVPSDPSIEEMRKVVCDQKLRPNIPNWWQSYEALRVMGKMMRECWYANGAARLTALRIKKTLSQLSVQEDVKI

TLK2(h) = target: T5, TLK2(h) (Homo sapiens, UniProt Q86UE8); assay: Kinase panel; assay type: biochemical
T5 construct: purchased Millipore KinaseProfiler

PAK5(h) = target: T6, PAK5(h) (Homo sapiens, UniProt Q9P286); assay: Kinase panel; assay type: biochemical
T6 construct: purchased Millipore KinaseProfiler
T6 sequence (Q9P286 whole entry): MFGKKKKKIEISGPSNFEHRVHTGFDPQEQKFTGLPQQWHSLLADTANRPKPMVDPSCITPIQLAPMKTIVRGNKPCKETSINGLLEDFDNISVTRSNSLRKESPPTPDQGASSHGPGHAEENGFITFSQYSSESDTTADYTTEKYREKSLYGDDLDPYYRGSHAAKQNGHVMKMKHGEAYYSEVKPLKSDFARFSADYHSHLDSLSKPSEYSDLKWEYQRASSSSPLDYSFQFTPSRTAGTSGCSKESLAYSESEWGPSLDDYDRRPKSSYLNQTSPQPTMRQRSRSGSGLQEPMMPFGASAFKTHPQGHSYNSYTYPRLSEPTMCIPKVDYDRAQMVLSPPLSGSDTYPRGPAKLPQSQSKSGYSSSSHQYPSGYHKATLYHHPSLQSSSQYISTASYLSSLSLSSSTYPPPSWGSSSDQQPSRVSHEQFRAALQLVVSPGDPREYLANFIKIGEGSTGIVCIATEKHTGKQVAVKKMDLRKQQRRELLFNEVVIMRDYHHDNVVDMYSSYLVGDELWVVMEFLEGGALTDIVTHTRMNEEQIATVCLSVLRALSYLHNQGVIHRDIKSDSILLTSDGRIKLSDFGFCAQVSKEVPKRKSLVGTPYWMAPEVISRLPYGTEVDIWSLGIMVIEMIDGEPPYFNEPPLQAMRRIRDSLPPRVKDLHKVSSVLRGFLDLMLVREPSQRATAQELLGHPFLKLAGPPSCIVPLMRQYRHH

T5 sequence (Q86UE8 whole entry): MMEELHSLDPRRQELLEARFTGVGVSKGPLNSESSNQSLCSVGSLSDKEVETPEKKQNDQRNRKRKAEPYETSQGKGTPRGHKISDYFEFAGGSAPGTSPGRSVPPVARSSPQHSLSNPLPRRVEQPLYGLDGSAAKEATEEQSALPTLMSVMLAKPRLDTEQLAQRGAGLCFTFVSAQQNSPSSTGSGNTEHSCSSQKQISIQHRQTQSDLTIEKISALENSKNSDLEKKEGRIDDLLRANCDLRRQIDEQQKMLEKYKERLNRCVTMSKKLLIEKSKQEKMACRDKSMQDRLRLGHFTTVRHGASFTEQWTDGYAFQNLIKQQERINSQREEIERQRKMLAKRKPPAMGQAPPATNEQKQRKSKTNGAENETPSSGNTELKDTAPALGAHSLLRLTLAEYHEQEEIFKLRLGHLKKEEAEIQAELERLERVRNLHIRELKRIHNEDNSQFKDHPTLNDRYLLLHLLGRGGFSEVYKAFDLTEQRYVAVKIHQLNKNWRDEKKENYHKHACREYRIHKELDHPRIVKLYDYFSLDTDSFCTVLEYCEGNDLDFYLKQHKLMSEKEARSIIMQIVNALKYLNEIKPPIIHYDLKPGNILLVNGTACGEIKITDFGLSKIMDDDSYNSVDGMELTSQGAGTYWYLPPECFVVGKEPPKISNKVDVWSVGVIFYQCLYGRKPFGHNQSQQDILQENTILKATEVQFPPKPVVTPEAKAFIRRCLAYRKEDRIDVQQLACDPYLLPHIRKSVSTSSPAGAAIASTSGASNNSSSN
T2 sequence (Q9BYP7 whole entry): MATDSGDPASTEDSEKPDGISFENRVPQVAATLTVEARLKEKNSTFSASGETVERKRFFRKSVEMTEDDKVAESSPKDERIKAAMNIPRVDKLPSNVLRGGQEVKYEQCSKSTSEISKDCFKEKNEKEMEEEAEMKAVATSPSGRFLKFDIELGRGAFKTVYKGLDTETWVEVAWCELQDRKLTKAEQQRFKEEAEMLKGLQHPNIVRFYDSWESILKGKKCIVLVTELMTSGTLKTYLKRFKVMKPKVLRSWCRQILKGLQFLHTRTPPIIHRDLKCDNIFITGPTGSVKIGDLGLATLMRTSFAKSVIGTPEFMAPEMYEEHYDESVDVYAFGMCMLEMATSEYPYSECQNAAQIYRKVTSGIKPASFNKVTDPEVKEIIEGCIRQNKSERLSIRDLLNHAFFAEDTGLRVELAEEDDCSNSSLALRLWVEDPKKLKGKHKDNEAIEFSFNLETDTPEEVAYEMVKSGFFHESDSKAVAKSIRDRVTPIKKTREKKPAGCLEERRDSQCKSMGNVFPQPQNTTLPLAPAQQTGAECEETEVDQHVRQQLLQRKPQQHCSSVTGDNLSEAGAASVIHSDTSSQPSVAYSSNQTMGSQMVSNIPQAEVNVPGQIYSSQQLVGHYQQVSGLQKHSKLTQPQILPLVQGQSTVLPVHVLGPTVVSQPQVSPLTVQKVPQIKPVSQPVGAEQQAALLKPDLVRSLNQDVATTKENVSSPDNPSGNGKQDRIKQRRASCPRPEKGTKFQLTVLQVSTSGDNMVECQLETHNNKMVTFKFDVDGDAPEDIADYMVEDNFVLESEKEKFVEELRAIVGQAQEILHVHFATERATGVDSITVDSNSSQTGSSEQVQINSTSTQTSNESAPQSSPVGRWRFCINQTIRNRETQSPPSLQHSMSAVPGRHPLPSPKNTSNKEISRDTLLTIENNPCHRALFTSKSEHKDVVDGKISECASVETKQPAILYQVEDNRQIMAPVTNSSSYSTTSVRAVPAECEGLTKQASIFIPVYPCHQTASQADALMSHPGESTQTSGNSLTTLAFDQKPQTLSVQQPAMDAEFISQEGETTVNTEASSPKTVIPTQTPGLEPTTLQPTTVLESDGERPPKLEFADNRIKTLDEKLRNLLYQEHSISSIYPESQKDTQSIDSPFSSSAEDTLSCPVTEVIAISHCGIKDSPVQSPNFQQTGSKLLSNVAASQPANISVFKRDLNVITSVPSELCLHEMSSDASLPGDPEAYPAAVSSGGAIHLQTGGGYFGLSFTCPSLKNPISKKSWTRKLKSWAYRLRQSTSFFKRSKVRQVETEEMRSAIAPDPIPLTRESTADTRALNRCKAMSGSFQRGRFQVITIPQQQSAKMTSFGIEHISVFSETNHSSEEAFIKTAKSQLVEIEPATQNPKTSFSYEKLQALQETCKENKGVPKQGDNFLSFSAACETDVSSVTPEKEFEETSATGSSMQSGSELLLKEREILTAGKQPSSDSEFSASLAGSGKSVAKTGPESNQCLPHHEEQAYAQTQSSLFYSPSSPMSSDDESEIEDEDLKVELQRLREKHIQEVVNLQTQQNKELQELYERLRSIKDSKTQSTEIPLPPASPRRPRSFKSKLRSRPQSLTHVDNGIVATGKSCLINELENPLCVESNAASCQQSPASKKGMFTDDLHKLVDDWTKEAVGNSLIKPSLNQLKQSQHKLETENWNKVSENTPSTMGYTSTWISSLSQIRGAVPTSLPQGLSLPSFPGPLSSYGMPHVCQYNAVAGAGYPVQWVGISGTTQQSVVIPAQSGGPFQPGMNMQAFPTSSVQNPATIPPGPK

Cn1ncc(Cl)c1-c1cc(C(=O)N[C@H](CN)Cc2cccc(F)c2)sc1Cl [GSK2110183]
inhibition at 0.5 µM (EphB4(h)): 0%
inhibition at 10 µM (EphB4(h)): 10%
AKT substrate phosphorylation levels (GSK3β, PRAS40, FOXO, Caspase 9) [1]: concentration-dependent effect
AKT substrate phosphorylation levels (GSK3β, PRAS40, FOXO, Caspase 9) [2]: concentration-dependent effect
inhibition at 0.5 µM (WNK3(h)): 0%
inhibition at 10 µM (WNK3(h)): 16%
inhibition at 0.5 µM (PKG1α(h)): 99%
inhibition at 10 µM (PKG1α(h)): 99%
inhibition at 0.5 µM (ALK4(h)): 3%
inhibition at 10 µM (ALK4(h)): 0%
inhibition at 0.5 µM (TLK2(h)): -2%
inhibition at 10 µM (TLK2(h)): -1%
inhibition at 0.5 µM (PAK5(h)): 2%
inhibition at 10 µM (PAK5(h)): 49%

Cn1ncc(Cl)c1-c1cc(C(=O)N[C@H](CN)Cc2ccc(F)c(F)c2)oc1Cl [GSK2141795]
inhibition at 0.5 µM (EphB4(h); 0.5 µM, read-out: % Inhibition): 5%
inhibition at 10 µM (EphB4(h); 10 µM, read-out: % Inhibition): 5%
AKT substrate phosphorylation levels (GSK3β, PRAS40, FOXO, Caspase 9) [1]: concentration-dependent effect
AKT substrate phosphorylation levels (GSK3β, PRAS40, FOXO, Caspase 9) [2]: concentration-dependent effect
inhibition at 0.5 µM (WNK3(h); 0.5 µM, read-out: % Inhibition): -2%
inhibition at 10 µM (WNK3(h); 10 µM, read-out: % Inhibition): 1%
inhibition at 0.5 µM (PKG1α(h); 0.5 µM, read-out: % Inhibition): 100%
inhibition at 10 µM (PKG1α(h); 10 µM, read-out: % Inhibition): 99%
inhibition at 0.5 µM (ALK4(h); 0.5 µM, read-out: % Inhibition): -8%
inhibition at 10 µM (ALK4(h); 10 µM, read-out: % Inhibition): -18%
inhibition at 0.5 µM (TLK2(h); 0.5 µM, read-out: % Inhibition): -11%
inhibition at 10 µM (TLK2(h); 10 µM, read-out: % Inhibition): 10%
inhibition at 0.5 µM (PAK5(h); 0.5 µM, read-out: % Inhibition): 0%
inhibition at 10 µM (PAK5(h); 10 µM, read-out: % Inhibition): 40%
